Data on 14 compounds can be found in US8785493B2, “Treatment of retroviral reservoirs exploiting oxidative stress” (Istituto Superiore di Sanita, priority 2008, dated 2014).

Read-outs that look alike come from different tables or passages of the source.

In data set [1] the test system is HIV-1 replication in latently HIV-1 infected lymphocytic ACH-2 cells. The format is cell-based. Particulars: for Induction of HIV-1 replication by the agent alone, ACH-2 cells: data not shown.
Data set [2] deals with HIV-1 replication in latently HIV-1 infected monocytoid U1 cells. Format: cell-based.
The test system of data set [3] is HIV-1 LTR in Jurkat A1 cells. The format is cell-based.
In another data set the target is Maize HD1-B (Zea mays, UniProt Q9ZTP8). Kind of data set: Maize HD1-B enzyme inhibition in vitro. The format is biochemical. The protocol: (§1) Maize HD2, HD1-B, and HD1-A Enzyme Inhibition in Vitro. Radioactively labelled chicken core histones were used as the enzyme substrate according to established procedures [referenced in: Mai et al., 2006]. The enzyme liberated tritiated acetic acid from the substrate, which was quantified by scintillation counting. The IC50 values are the results of triple determinations. A 50 μL sample of maize enzyme (at 30° C.) was incubated (30 min) with 10 microL of total [^3H]acetate-prelabelled chicken reticulocyte histones (2 mg/mL). The reaction was stopped by the addition of 36 microL of 1 M HCl/0.4 M acetate and 800 microL of ethyl acetate. After centrifugation (10 000 g, 5 min), an aliquot of 600 microL of the upper phase was counted for radioactivity in 3 mL of liquid scintillation cocktail. The compounds were tested at a starting concentration of 40 microM, and active substances were diluted further. TSA and SAHA were used as the reference compounds, and blank solvents were used as negative controls [Mai et al. 2006].

The next data set has as its target Maize HD1-A (Zea mays, UniProt Q7XAX9). The experiment in a line: Maize HD1-A enzyme inhibition in vitro. Format: biochemical. The protocol: as §1
In a further data set the target is mouse HDAC1 (Mus musculus, UniProt O09106). The experiment in a line: Mouse HDAC1 enzyme assay. Format: biochemical. Here is the method:
Mouse HDAC1 Enzyme Assay. […] HDAC activity was determined using [^3H]acetate-prelabelled chicken reticulocyte histones as the substrate. Mouse HDAC1 (50 microL) was incubated with different concentrations of compounds for 15 min on ice, and 10 μL of total [^3H]acetate-prelabelled chicken reticulocyte histones (2 mg/mL) were added, resulting in a concentration of 41 microM. The mixture was incubated at 37° C. for 1 h. The reaction was stopped by the addition of 50 microL of 1 M HCl/0.4 M acetylacetate and 1 mL ethyl acetate. After centrifugation at 10 000 g for 5 min, an aliquot of 600 microL of the upper phase was counted for radioactivity in a 3 mL liquid scintillation cocktail [Mai et al., 2006].

A further data set concerns the target IP HDAC1 (Homo sapiens, UniProt Q13547). Kind of data set: Human HDAC1 assay on immunoprecipitate (IP) from U937 cells. Format: biochemical. Here is the method:
(§2) Cell-Based Human HDAC1 and HDAC4 Assays. […] Then, 1000 micrograms of extracts were diluted in IP buffer up to 1 mL and pre-cleared by incubating with 20 microL of A/G plus Agarose (Santa Cruz) for 30 min to 1 h on a rocking table at 4° C. Supernatants were transferred into a new tube, and the antibodies (around 3 to 4 μg) were added and IP was allowed to proceed overnight at 4° C. on a rocking table. The antibodies used were HDAC1 (Abcam) and HDAC4 (Sigma). As the negative control, the same amount of protein extracts were immunoprecipitated with the corresponding purified IgG (Santa Cruz). On the next day, 20 microL of A/G and Agarose (Santa Cruz) were added to each IP, and incubation was continued for 2 h. The beads were recovered by brief centrifugation and washed with cold IP buffer several times. The samples were than washed twice in PBS and re-suspended in 20 microL of sterile PBS. The HDAC assay was carried out according to the supplier's instructions (Upstate). Briefly, samples immunoprecipitated with the HDAC4 and HDAC1 or with purified IgG were pooled separately to homogenise all samples. Then, 10 microL of the IP was incubated with a previously labelled ^3H-Histone H4 peptide linked with streptavidine agarose beads (Upstate). In detail, 120 000 CPM of the H4-^3H-acetyl-peptide was used for each tube and incubated in 1 HDAC buffer with 10 microL of the sample in the presence or absence of HDAC inhibitors with a final volume of 200 μL. Those samples were incubated overnight at 37° C. in slow rotation. On the next day, 50 μL of a quenching solution was added, and 100 microL of the samples were counted in duplicate after brief centrifugation in a scintillation counter.

The target of a further data set is IP HDAC4 (Homo sapiens, UniProt P56524). The format is biochemical. Here is the method:
as §2

Data set [4] concerns Non-infected H9 and U937, HIV-1 infected H9IIIB, ACH-2 and U1 cells. The experiment in a line: Selective killing, MTT cell viability, infected versus non-infected cells. Particulars: seven days. The format is cell-based. The text has this: Cell viability assay. Cell viability was quantitated using the highly standardised methyl tetrazolium (MTT) procedure (described in detail in: Savarino A, Calosso L, Piragino A, Martini C, Gennero L, Pescarmona G P, Pugliese A. Modulation of surface transferrin receptors in lymphoid cells de novo infected with human immunodeficiency virus type-1. Cell Biochem Funct. 1999 March; 17(1):47-55). Absorbance values were generated at a wavelength of 450 nm using 96-well ELISA readers and subtracted of the blank values using cell culture media in the absence of cells. Cell viability in the presence of the test compounds was expressed as a percentage of the cell viability of control untreated cell cultures. For testing of selective killing, Non-infected H9, and U937, and HIV-1 infected HIIIB, ACH-2, and U1 cells were incubated with the test compounds for seven days, and cell viability was measured as described above.

A further data set relates to HDACs. The experiment in a line: HDAC class selectivity (HDACs inhibited). The format is biochemical. Particulars: Class 1 selective or NS (non-selective).
In a further data set the test system is latent HIV-1. Particulars: cited from earlier work.
Data set [5] concerns HIV-1 LTR in quiescently infected Jurkat 8.4 cells. Kind of data set: HIV-1 LTR-controlled GFP expression, flow cytometry, Jurkat clone 8.4. Particulars: 72 h, gated live cells. The format is cell-based. In general terms: A flow cytometer gives signals particle by particle.

Chain of mouse HDAC1 (O09106 whole entry): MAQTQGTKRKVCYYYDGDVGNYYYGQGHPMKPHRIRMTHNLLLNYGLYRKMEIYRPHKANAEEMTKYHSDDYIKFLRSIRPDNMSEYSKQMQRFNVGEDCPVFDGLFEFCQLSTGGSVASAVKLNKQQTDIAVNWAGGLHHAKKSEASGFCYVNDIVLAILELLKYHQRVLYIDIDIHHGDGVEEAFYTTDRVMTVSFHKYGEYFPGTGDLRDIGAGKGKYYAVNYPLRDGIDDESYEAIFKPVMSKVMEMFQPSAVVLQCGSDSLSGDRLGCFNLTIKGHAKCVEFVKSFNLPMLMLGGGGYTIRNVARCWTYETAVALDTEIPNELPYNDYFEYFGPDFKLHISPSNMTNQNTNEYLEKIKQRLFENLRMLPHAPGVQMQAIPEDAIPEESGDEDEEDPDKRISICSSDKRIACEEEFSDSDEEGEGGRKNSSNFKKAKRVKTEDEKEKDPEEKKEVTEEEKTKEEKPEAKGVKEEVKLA
Chain of IP HDAC1 (Q13547 whole entry): as the sequence (O09106 whole entry) above, with K8R, E399D, D424E counted along it
Chain of IP HDAC4 (P56524 whole entry): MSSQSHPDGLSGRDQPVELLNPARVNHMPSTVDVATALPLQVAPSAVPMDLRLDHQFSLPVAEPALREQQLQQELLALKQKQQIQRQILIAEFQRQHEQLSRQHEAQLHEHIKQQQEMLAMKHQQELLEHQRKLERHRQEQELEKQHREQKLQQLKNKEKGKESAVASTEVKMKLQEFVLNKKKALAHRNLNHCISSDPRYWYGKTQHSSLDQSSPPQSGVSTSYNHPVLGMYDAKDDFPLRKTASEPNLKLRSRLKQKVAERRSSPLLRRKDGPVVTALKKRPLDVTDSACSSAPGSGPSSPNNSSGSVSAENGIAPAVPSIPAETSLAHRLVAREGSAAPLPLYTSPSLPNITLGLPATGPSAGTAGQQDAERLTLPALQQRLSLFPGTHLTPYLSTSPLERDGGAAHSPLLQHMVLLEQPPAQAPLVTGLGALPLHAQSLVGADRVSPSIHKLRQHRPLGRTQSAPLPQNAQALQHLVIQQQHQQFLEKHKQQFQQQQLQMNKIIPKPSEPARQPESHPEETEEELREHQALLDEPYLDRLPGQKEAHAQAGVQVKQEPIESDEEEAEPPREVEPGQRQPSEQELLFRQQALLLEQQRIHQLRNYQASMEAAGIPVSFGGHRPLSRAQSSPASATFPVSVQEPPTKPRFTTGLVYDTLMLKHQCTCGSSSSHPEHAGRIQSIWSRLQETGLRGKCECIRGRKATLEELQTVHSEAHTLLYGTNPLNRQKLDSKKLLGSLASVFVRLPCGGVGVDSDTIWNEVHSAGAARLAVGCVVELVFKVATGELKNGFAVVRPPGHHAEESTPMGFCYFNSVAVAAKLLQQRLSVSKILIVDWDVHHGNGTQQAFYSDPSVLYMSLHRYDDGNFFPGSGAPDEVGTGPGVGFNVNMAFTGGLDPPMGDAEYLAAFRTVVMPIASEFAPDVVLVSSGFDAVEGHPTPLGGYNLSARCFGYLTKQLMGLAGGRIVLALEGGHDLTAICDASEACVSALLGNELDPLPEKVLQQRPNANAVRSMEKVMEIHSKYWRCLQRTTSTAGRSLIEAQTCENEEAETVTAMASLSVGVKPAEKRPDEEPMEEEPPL
Chain of Maize HD1-B (Q9ZTP8 entry or part of it): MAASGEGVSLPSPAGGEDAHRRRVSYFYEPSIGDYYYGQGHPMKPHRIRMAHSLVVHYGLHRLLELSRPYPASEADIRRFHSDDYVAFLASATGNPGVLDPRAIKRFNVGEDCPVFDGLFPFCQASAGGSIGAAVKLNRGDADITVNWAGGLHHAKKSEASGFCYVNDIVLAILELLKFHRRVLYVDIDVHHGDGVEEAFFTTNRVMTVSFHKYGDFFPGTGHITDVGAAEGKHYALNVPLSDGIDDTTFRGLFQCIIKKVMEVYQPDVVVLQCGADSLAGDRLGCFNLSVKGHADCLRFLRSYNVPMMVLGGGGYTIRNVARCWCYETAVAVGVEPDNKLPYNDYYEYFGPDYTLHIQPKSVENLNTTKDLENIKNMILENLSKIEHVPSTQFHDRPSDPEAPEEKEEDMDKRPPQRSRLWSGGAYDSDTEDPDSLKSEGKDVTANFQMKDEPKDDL
Chain of Maize HD1-A (Q7XAX9 entry or part of it): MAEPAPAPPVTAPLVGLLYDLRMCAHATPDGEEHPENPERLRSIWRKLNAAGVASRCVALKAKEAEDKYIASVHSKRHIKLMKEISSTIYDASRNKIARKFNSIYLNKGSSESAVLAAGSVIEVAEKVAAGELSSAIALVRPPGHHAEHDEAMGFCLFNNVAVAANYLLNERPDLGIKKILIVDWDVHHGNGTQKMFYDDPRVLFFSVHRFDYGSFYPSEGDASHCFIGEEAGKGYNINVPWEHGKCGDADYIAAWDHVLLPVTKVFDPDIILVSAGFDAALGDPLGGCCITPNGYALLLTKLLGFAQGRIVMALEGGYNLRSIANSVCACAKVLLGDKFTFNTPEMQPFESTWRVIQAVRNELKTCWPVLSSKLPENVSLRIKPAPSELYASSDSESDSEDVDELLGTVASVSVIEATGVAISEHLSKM

For `CCCCS(=N)(=O)CCC(N)C(=O)O` (stereo not drawn) [BSO, buthionine sulfoximine], in data set [1] (concentrations up to 500 μM), the “Induction of HIV-1 replication by the agent alone, ACH-2 cells” value (shortened to “Induction … ACH-2 cells”) was “had no effect”. In addition, in data set [1], the “Induction … ACH-2 cells” value is recorded as “did not significantly induce HIV-1 replication”. Also, the “Induction of HIV-1 replication by the agent alone, U1 cells” value in [2] (data not shown) is on record as “did not significantly induce HIV-1 replication”. Further, in data set [3] (72 h), the “GFP expression in combination with HDACi (MS-275), Jurkat A1 cells” value is reported as “recruited HDACi-insensitive cells into the responding cell population” and the “LTR-controlled GFP expression, Jurkat A1 cells” value is “induced LTR activation in a small proportion of cells”.

In the case of `O=C([O-])CN(CC(=O)[O-])CC(=O)[O-].[Fe+3]` [FeNTA, iron nitriloacetate], the “Induction … ACH-2 cells” value in data set [1] is “dose-dependently induced HIV-1 replication”.

With `O=C(/C=C/c1ccc(NC(=O)C(c2ccccc2)c2ccccc2)cc1)NO` [MC 1855], the IC50 at Maize HD1-B stood at 162 nM; against Maize HD1-A, 55 nM; against mouse HDAC1 it was 128 nM. The figures for the inhibition at 5 µM at IP HDAC1 and against IP HDAC4 were 78.7% and 0%, respectively. Further, the “Selective killing of HIV-1 infected cells versus uninfected counterparts” value in [4] was “selective killing of HIV-1-infected cells”. Further, the HDACs inhibited entry with HDACs is “Class 1”.

Regarding `CC(C(=O)Nc1ccc(/C=C/C(=O)NO)cc1)c1ccccc1` (stereo not drawn) [MC 1857], the values for the IC50 against Maize HD1-B, against Maize HD1-A and against mouse HDAC1 were 72 nM, 80 nM and 291 nM, respectively. In addition, at IP HDAC1, the inhibition at 5 µM turned out to be 79.3%.

With `CCC(C(=O)Nc1ccc(/C=C/C(=O)NO)cc1)c1ccccc1` (stereo not drawn) [MC 1864], the figures for the IC50 on Maize HD1-B, at Maize HD1-A and on mouse HDAC1 were 89 nM, 64 nM and 305 nM, respectively. For the same compound, the inhibition at 5 µM against IP HDAC1 is 55%; on IP HDAC4 it was 60.4%.

For the compound `O=C(/C=C/c1ccc(NC(=O)C(Cc2ccccc2)c2ccccc2)cc1)NO` (stereo not drawn) [MC 1895, 3-[4-(2,3-Diphenylpropionylamino)phenyl]-N-hydroxy-2-propenamide], the IC50 on Maize HD1-B is 133 nM; at Maize HD1-A it was 74 nM; at mouse HDAC1, 83 nM. Further, the inhibition at 5 µM came out at 72.5% on IP HDAC1 and 16.1% against IP HDAC4. The HDACs inhibited entry in the data set with HDACs was “Class 1”.

As to `CCC(C(=O)Nc1ccc(/C=C/C(=O)NO)cc1)c1cccc2ccccc12` (stereo not drawn) [MC 2111], the results for the IC50 on Maize HD1-B, against Maize HD1-A and at mouse HDAC1 were 58 nM, 42 nM and 620 nM, respectively. The inhibition at 5 µM at IP HDAC1 was determined as 73.6%; against IP HDAC4, 0%. Also, the HDACs inhibited entry in the data set on HDACs is “Class 1”.

Consider `CCC(C(=O)Nc1ccc(/C=C/C(=O)NO)cc1)c1ccc2ccccc2c1` (stereo not drawn) [MC 2113], for which the IC50 stood at 62 nM against Maize HD1-B, 69 nM against Maize HD1-A and 560 nM against mouse HDAC1. The results for the inhibition at 5 µM on IP HDAC1 and on IP HDAC4 were 64.9% and 22.4%, respectively. Also, the HDACs inhibited entry in the data set with HDACs is listed as “Class 1”.

For the compound `CC(C)C(C(=O)Nc1ccc(C(=O)NO)cn1)c1ccccc1` (stereo not drawn) [MC 2195], the values for the IC50 on Maize HD1-B, against Maize HD1-A and against mouse HDAC1 were 11 nM, 8 nM and 69 nM, respectively. For the same compound, the inhibition at 5 µM against IP HDAC1 is 46.7%; against IP HDAC4, 93.1%. Also, the HDACs inhibited result in the data set on HDACs is “Class 1”.

For the compound `Nc1ccccc1NC(=O)c1ccc(CNC(=O)OCc2cccnc2)cc1` [MS 275], the “Concentration range of activity in inducing HIV-1 escape from latency, ACH-2 cells” value in [1] (day 3, concentration-response 0.001-1 μM) was “nanomolar range”. Moreover, the “Combined HIV-1 promoting effect of HDACi with BSO, ACH-2 cells” value in data set [1] (percentage-of-synergism graph, three days) is reported as “synergistic effect”. Also, the “Concentration range of activity in inducing HIV-1 escape from latency, U1 cells” value in [2] (not shown) was “nanomolar range”. This compound yielded an inhibition at 5 µM on IP HDAC1 of 65.4%. In addition, the HDACs inhibited entry in the data set with HDACs is listed as “Class 1”.

Turning to `O=C(CCCCCCC(=O)Nc1ccccc1)NO` [SAHA, suberoylanilide hydroxamic acid], the “LTR-controlled GFP expression, Jurkat A1 cells” value in data set [3] (72 h) was “induction of LTR-controlled expression of green-fluorescent protein (GFP)”.

For the compound `CCCC(CCC)C(=O)O` [VA, valproic acid], the “EC50, HIV-1 escape from latency” value in the data set with latent HIV-1 is reported as “millimolar range”.

Take `N.N.[Cl][Pt][Cl]` [cisplatin]: the “Concentration range activating latent HIV-1” value in data set [3] (cell line models for HIV-1 latency) is recorded as “nanomolar range”. In the data set on latent HIV-1 (Spandidos et al., 1990), the “Concentration range activating quiescent HIV-1” value is on record as “micromolar”.

As for arsenic trioxide, in data set [5], the “LTR-controlled GFP expression, Jurkat 8.4 cells” value is “dose-dependent shift in fluorescence”. The “LTR-controlled GFP expression, Jurkat A1 cells” value in [3] (72 h) was “increased in response to arsenic trioxide in a concentration-dependent manner”.

The term IC50 denotes the point on the concentration scale where inhibition reaches its midpoint. What is called inhibition is the relative decrease from the control value, in per cent.
